Earlier results as cited in patent US9175008B1, “Prodrugs of anti-platelet agents” (CELLIX BIO PRIVATE LIMITED, priority 2014, dated 2015).

Test system: recurrent atherothrombotic events
Details: recurrent atherothrombotic events across a wide range of high-risk patients

CC(=O)Oc1ccccc1C(=O)O [aspirin]
relative risk reduction: approximately 25%
